Experimental data as given in US12213957B2, “Use of aminoacetonitrile compounds for the treatment of infection and disease” (PITNEY PHARMACEUTICALS PTY LIMITED, priority 2020, dated 2025).
Where “and” joins values, the source holds several entries; their conditions need not be identical. Equal values may be shown once. Read-outs that look alike come from different tables or passages of the source.

How the values were obtained:
[1] = Blood plasma levels in pet dogs of the veterinary trial; format: in vivo, dog; settings: pet dogs, monepantel 179 mg/kg bw daily; one value per dog
Protocol: In a Phase 2 veterinary clinical trial, monepantel was administered as tablets daily to six pet dog patients (dog identification numbers: 001-001, 001-002, 001-003, 003-001, 004-002 and 004-003) with treatment naïve B cell lymphoma at a target dose of 179 mg/kg bw. Superficial tumour lesions were measured with calipers, while lesions within the body were assessed by X-Ray, ultrasound, computer tomography (CT) and/or physical palpitation. Baseline Day 0 (D0) predose caliper, X-Ray, ultrasound and CT measurements where available as well as a complete physical examination were recorded.
An inverse correlation between RECIST1.1 response and blood plasma levels of monepantel and monepantel sulfone was evident. The one dog (003-001) that achieved a partial response, recorded monepantel and […] of 0.1 and 6.7 μM, respectively.

[2] = Blood plasma levels in human patients; format: in vivo; settings: monepantel as Zolvix 5 mg/kg bw daily
Protocol: In a Phase 1 b clinical trial, monepantel administered as Zolvix daily to four human patients (PA02, PA04, PA06 and PA07) at 5 mg/kg bw provided an anticancer effect by computerised tomography (CT) scanning according to RECIST1.1 criteria. […] Evidence of mTOR pathway signalling inhibition in these patients was supported by the finding of decreased eurkaryotic translation initiation factor 4E-binding protein 1 (EIF-4EBP1) phosphorylation levels from the preparations of PBMCs from PA02, PA04 and PA06 (FIG. 1B). EIF-4EIBP1 phosphorylation levels were not assayed from preparations of PBMCs from PA07.
Blood plasma monepantel and monepantel sulfone levels of all four patients were recorded at intervals throughout treatment (Table 2).

[3] = system: SARS-CoV-2; format: cell-based; settings: 40 μM and 8 μM compared to 0.064 μM, p<0.001
[4] = system: SARS-CoV-2; format: cell-based
[5] = system: SARS-CoV-2; format: cell-based; settings: Calu-3 human cells, concentrations from 3.00 μM down to 0.013 μM
[6] = system: VERO cells infected with SARS-CoV-2; format: cell-based; settings: approximately 10 μM MPLS
[7] = system: VERO cells
[8] = system: CHO cells; settings: no virus, read-out: CHO and cell 1050 values for MPLS treatment alone; cited from earlier work

C[C@](C#N)(COc1cc(C#N)ccc1C(F)(F)F)NC(=O)c1ccc(S(=O)(=O)C(F)(F)F)cc1 [MPLS, monepantel sulfone]
Blood plasma Monepantel sulfone Day 24 [1]: 26.1 µM | Blood plasma level of monepantel sulfone, Average ([2]; 0.25 h, average of patients): 0.00 ∞M | Blood plasma level of monepantel sulfone ([2]; 0.25 h, individual patients): 0 ng/ml (3×) and 5.4 ng/ml | Blood plasma level of monepantel sulfone, Average ([2]; 0.5 h, average of patients): 0.05 ∞M | Blood plasma level of monepantel sulfone ([2]; 0.5 h, individual patients): 8.63 ng/mL and 37.5 ng/mL and 32.1 ng/mL and 13.1 ng/mL | Blood plasma level of monepantel sulfone, Average ([2]; 1 h, average of patients): 0.29 ∞M | Blood plasma level of monepantel sulfone ([2]; 1 h, individual patients): 65.5 ng/mL and 152 ng/mL and 252 ng/mL and 125 ng/mL | Blood plasma level of monepantel sulfone, Average ([2]; 2 h, average of patients): 0.86 ∞M | Blood plasma level of monepantel sulfone ([2]; 2 h, individual patients): 266 ng/mL and 482 ng/mL and 639 ng/mL and 360 ng/mL | Blood plasma level of monepantel sulfone, Average ([2]; 4 h, average of patients): 1.77 ∞M | Blood plasma level of monepantel sulfone ([2]; 4 h, individual patients): 1050 ng/mL and 663 ng/mL and 1140 ng/mL | Blood plasma level of monepantel sulfone, Average ([2]; 8 h, average of patients): 1.13 ∞M | Blood plasma level of monepantel sulfone ([2]; 8 h, individual patients): 637 ng/mL and 398 ng/mL and 689 ng/mL | Blood plasma level of monepantel sulfone, Average ([2]; 12 h, average of patients): 0.68 ∞M | Blood plasma level of monepantel sulfone ([2]; 12 h, individual patients): 276 ng/mL and 348 ng/mL and 351 ng/mL | Blood plasma level of monepantel sulfone, Average ([2]; 24 h, average of patients): 0.45 ∞M | Blood plasma level of monepantel sulfone ([2]; 24 h, individual patients): 179 ng/mL and 258 ng/mL and 214 ng/mL | Blood plasma level of monepantel sulfone, Average ([2]; pre-dose D3, average of patients): 267.8 ng/ml and 0.53 ∞M | Blood plasma level of monepantel sulfone ([2]; pre-dose D3, individual patients): 269 ng/mL and 240 ng/mL and 285 ng/mL and 277 ng/mL | Blood plasma level of monepantel sulfone, Average ([2]; pre-dose D4, average of patients): 272.3 ng/ml and 0.54 ∞M | Blood plasma level of monepantel sulfone ([2]; pre-dose D4, individual patients): 291 ng/ml (2×) and 231 ng/ml and 276 ng/ml | Blood plasma level of monepantel sulfone, Average ([2]; pre-dose D5, average of patients): 238.3 ng/ml and 0.47 ∞M | Blood plasma level of monepantel sulfone ([2]; pre-dose D5, individual patients): 233 ng/mL and 229 ng/mL and 250 ng/mL and 241 ng/mL | Blood plasma level of monepantel sulfone, Average ([2]; pre-dose D6, average of patients): 214.3 ng/ml and 0.42 ∞M | Blood plasma level of monepantel sulfone ([2]; pre-dose D6, individual patients): 232 ng/mL and 205 ng/mL and 216 ng/mL and 204 ng/mL | Blood plasma level of monepantel sulfone, Average ([2]; pre-dose D7, average of patients): 205.0 ng/ml and 10.41 ∞M | Blood plasma level of monepantel sulfone ([2]; pre-dose D7, individual patients): 215 ng/mL and 188 ng/mL and 235 ng/mL and 182 ng/mL | Blood plasma level of monepantel sulfone, Average ([2]; pre-dose D14, average of patients): 148.0 ng/ml and 0.29 ∞M | Blood plasma level of monepantel sulfone ([2]; pre-dose D14, individual patients): 158 ng/mL and 131 ng/mL and 154 ng/mL and 149 ng/mL | Blood plasma level of monepantel sulfone, Average ([2]; pre-dose D21, average of patients): 147.0 ng/ml and 0.29 ∞M | Blood plasma level of monepantel sulfone ([2]; pre-dose D21, individual patients): 157 ng/mL and 146 ng/mL and 138 ng/mL | Blood plasma level of monepantel sulfone, Average ([2]; pre-dose D28, average of patients): 154.3 ng/ml and 0.31 ∞M | Blood plasma level of monepantel sulfone ([2]; pre-dose D28, individual patients): 180 ng/mL and 162 ng/mL and 121 ng/mL | concentration at 0.25 h ([2]; plasma, oral, 5 mg/kg bw, 0.25 h, average of patients, read-out: Blood plasma level of monepantel sulfone, Average): 0.0014 µg/mL | concentration at 0.5 h ([2]; plasma, oral, 5 mg/kg bw, 0.5 h, average of patients, read-out: Blood plasma level of monepantel sulfone, Average): 0.0228 µg/mL | concentration at 1 h ([2]; plasma, oral, 5 mg/kg bw, 1 h, average of patients, read-out: Blood plasma level of monepantel sulfone, Average): 0.149 µg/mL | concentration at 2 h ([2]; plasma, oral, 5 mg/kg bw, 2 h, average of patients, read-out: Blood plasma level of monepantel sulfone, Average): 0.437 µg/mL | concentration at 4 h ([2]; plasma, oral, 5 mg/kg bw, 4 h, average of patients, read-out: Blood plasma level of monepantel sulfone, Average): 0.896 µg/mL | concentration at 4 h ([2]; plasma, oral, 5 mg/kg bw, 4 h, individual patients, read-out: Blood plasma level of monepantel sulfone): 0.732 µg/mL | concentration at 8 h ([2]; plasma, oral, 5 mg/kg bw, 8 h, average of patients, read-out: Blood plasma level of monepantel sulfone, Average): 0.572 µg/mL | concentration at 8 h ([2]; plasma, oral, 5 mg/kg bw, 8 h, individual patients, read-out: Blood plasma level of monepantel sulfone): 0.565 µg/mL | concentration at 12 h ([2]; plasma, oral, 5 mg/kg bw, 12 h, average of patients, read-out: Blood plasma level of monepantel sulfone, Average): 0.346 µg/mL | concentration at 12 h ([2]; plasma, oral, 5 mg/kg bw, 12 h, individual patients, read-out: Blood plasma level of monepantel sulfone): 0.409 µg/mL | concentration at 24 h ([2]; plasma, oral, 5 mg/kg bw, 24 h, average of patients, read-out: Blood plasma level of monepantel sulfone, Average): 0.226 µg/mL | concentration at 24 h ([2]; plasma, oral, 5 mg/kg bw, 24 h, individual patients, read-out: Blood plasma level of monepantel sulfone): 0.254 µg/mL | SARS-CoV-2 RNA concentration in the media (qPCR) [3]: significantly decreased | SARS-CoV-2 infectivity (TCID50, repeat experiment) compared to no treatment ([4]; MPLS 11.11 μM (highest concentration), VERO cells): significantly reduces SARS-CoV-2 infectivity | pathogenicity of VERO cell culture media following infection (TCID50) ([4]; MPLS 8 and 40 μM, strong trend): reduce the pathogenicity | SARS-CoV-2 infectivity (TCID50) [5]: reduced SARS-CoV-2 infectivity | protection against cell death following infection with SARS-CoV-2 [6]: almost completely protected VERO cell against cell death | toxic effect upon VERO cells infected with SARS-CoV-2 (LDH) [7]: minimal toxic effect | toxicity caused by SARS-CoV-2 [7]: appeared to increase toxicity | toxicity of VERO cells to SARS-CoV-2 infection [7]: may slightly increase toxicity | toxicity to VERO cells [7]: no signs of toxicity | toxicity to uninfected VERO cells [7]: some toxicity | SARS-CoV-2 toxicity ([7]; African green monkey): does not apparently increase SARS-CoV-2 toxicity | IC50 [8]: 74 µM
